System: HepG2 LDLR mRNA, qPCR, 6 h
Assay: cholesterol-dependence of LDLR transcript changes – cell-based, HepG2, RT-PCR, cherry-picked dose, mechanism study for Trib1 inducer project, late-stage follow-up (AID 1053161)
Conditions: stronger effect = higher value

CN1C(=O)c2cc(NC(=O)c3ccc(C(F)(F)F)cc3)ccc2OC[C@@H]2O[C@H](CC(=O)NC3Cc4ccccc4C3)CC[C@@H]21
fold induction: 2.5
